In patent US6845328B2, “Screening methods using the crystal structure of ribosomal protein L11/GTPase activating region rRNA complex” (University of Utah Research Foundation, priority 1999, dated 2005):
Entries after “also recorded” stand apart in the source; their conditions may differ.

Columns and labels:
[1] = tested on: E. coli S30 lysate and luciferase mRNA; details: bioluminescence; cited from earlier work
70S ribosomes / EF-G = 70S ribosomes / EF-G (Escherichia coli, UniProt P0A7J7); details: cited from earlier work
70S ribosomes / EF-G, sequence (P0A7J7 2-142): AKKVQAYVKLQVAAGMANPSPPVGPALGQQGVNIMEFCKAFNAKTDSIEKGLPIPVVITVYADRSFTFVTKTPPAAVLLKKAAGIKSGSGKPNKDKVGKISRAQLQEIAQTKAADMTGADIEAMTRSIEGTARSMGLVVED

GTPase centre-59 mer = assay: Filter binding assay of thiostrepton to GTPase centre RNA (96-well, displacement format); details: read-out: dissociation constant for the thiostrepton/GTPase centre-59 mer complex
Procedure: Thiostrepton binding to GTPase centre RNA can be monitored by a filter binding assays (Uchiumi et al., 1995, Biol. Chem., 270(50):29889-93; Draper et al., 1988, Methods Enzymol., 164:203-20). The filter binding assay can be transformed to a 96-well format using Millipore MHAB (mixed cellulose ester) 96-well plates. The dissociation constant for the thiostrepton/GTPase centre-59 mer complex of 1 uM is in good accordance with the literature. Additionally, filter binding can show the cooperativity in binding of thiostrepton and L11. Thermotoga maritima ribosomes are known to be sensitive to thiostrepton (Londei et al., 1988, J. Bacteriol., 170(9):4353-60), although 100-fold less than B. stearothermophilus ribosomes. The affinity of thiostrepton for Thermotoga GTPase center RNA in vitro has not yet been determined.
^35S- or ^32P-labelled RNA is prepared by transcription in the presence of radiolabelled nucleotides. The labelled RNAs are purified by gel electrophoresis or chromatography by reverse-phase. […] Association constants between RNA and thiostrepton in the presence or absence of inhbitor are determined in 100 ul reactions containing 10 mM Tris-HCl (pH 7.4), 3 mM MgCl2, 175 mM NH4Cl and 5% v/v DMSO. […]
The relative amounts of RNA retained in the presence and absence of inhibitor can be determined by quantitation of the radioactivity on each filter. […]

intact ribosomes = intact ribosomes (Escherichia coli, UniProt P0A7J7); details: higher than for 23S RNA; cited from earlier work
intact ribosomes, sequence (P0A7J7 2-142): as above

23S RNA = details: equilibrium dialysis; read-out: dissociation constant of thiostrepton/23S RNA; cited from earlier work
isolated L11 = isolated L11 (Escherichia coli, UniProt P0A7J7); details: L11 without RNA; cited from earlier work
isolated L11, sequence (P0A7J7 whole entry): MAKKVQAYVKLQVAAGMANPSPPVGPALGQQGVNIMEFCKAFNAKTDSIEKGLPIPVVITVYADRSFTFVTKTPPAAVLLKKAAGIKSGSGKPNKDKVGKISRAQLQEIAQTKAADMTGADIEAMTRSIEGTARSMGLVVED

[2] = molecular target: T1, Thermotoga maritima ribosomes (Thermotoga maritima, UniProt P29395); details: less than B. stearothermophilus ribosomes; cited from earlier work
T1 sequence (P29395 2-141 limits assumed): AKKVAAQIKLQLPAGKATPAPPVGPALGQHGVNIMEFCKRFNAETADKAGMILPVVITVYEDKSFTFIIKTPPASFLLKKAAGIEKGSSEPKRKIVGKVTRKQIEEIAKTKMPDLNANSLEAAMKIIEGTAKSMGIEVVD

GAR RNA = details: RNA without L11; read-out: Kd, affinity for the RNA alone; cited from earlier work
50S subunits = 50S subunits (Escherichia coli, UniProt P0A7J7); details: cited from earlier work
50S subunits, sequence (P0A7J7 2-142): as the sequence (P0A7J7 2-142) above

Row | SMILES | yield of active luciferase compared to the control [1] | effect on hydrolysis of GTP by EF-G (70S ribosomes / EF-G) | Kd (GTPase centre-59 mer) | affinity to intact ribosomes relative to 23S RNA (intact ribosomes) | Kd (23S RNA) | binding to isolated L11 (isolated L11) | sensitivity of ribosomes to thiostrepton relative to B. stearothermophilus ribosomes [2] | Kd (GAR RNA) | binding to 50S subunits (50S subunits)
1 | O=C(N[C@H](CO)[C@H](O)c1ccc([N+](=O)[O-])cc1)C(Cl)Cl [chloramphenicol] | decrease in yield of active luciferase | – | – | – | – | – | – | – | –
2 | C/C=C(\NC(=O)c1csc(-c2csc(-c3ccc4c(n3)-c3csc(n3)[C@H]([C@@H](C)O)NC(=O)c3csc(n3)[C@H](C(C)C)NC(=O)c3csc(n3)/C(=C/C)NC(=O)[C@H]([C@@H](C)O)NC(=O)c3csc-4n3)n2)n1)C(=O)NC[C@@H](C)O [micrococcin] | – | stimulates GTP hydrolysis by EF-G | – | – | – | – | – | – | –
3 | C=C(NC(=O)C(=C)NC(=O)c1csc(C2=N[C@@H]3c4csc(n4)[C@H]4NC(=O)c5csc(n5)[C@H]([C@](C)(O)[C@@H](C)O)NC(=O)[C@H]5CSC(=N5)/C(=C/C)NC(=O)[C@H]([C@@H](C)O)NC(=O)c5csc(n5)[C@]3(CC2)NC(=O)[C@H](C)NC(=O)C(=C)NC(=O)[C@H](C)NC(=O)[C@H]([C@@H](C)CC)N[C@@H]2C=Cc3c([C@H](C)O)cc(nc3[C@H]2O)C(=O)O[C@@H]4C)n1)C(N)=O [thiostrepton] | decrease in yield of active luciferase | inhibits elongation factor G (EF-G)-dependent GTP hydrolysis; also recorded: inhibits hydrolysis of GTP by EF-G | 1000 nM | 100-1000 fold | 230 nM | does not bind isolated L11 | 100 fold | 400 nM | binds essentially irreversibly to 50S subunits
